According to US12077503B2, “Substituted cyclic amides and their use as herbicides” (FMC CORPORATION, priority 2015, dated 2024):

What was measured:
Format in all cases: in vivo
[1] = system: barnyardgrass (Echinochloa crus-galli); experiment: Test G Post-Emergence Protocol; details: Echinochloa crus-galli, post-emergence, 312 h; for pest or weed control at 15.625 g/ha: 15.625 g ai/ha, evaluated after 13 days (100=total damage to plant; 0=no damage to plant), read-out: Barnyardgrass damage rating; for pest or weed control at 62.5 g/ha: 62.5 g ai/ha, read-out: Barnyardgrass damage rating (100=total damage to plant; 0=no damage to plant); for pest or weed control at 62.5 g/ha / pest or weed control at 250 g/ha: evaluated after 13 days; for pest or weed control at 250 g/ha: 250 g ai/ha, read-out: damage to plant, Barnyardgrass (100=total damage to plant; 0=no damage to plant)
How it was run: (§1)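 Damage was rated 13 days after treatment from 0 (none) to 100 (plant killed). Compound was applied as a spray at 15.625, 62.5 or 250 g/ha in 50:50 acetone/water containing 0.5% Tween 20, onto 8-day-old potted plants kept in a glasshouse (24/16 °C, 14 h light, 65% humidity).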

[2] = system: redroot pigweed (Amaranthus retroflexus); experiment: Test G Post-Emergence Protocol; details: Amaranthus retroflexus, post-emergence, 312 h; for pest or weed control at 15.625 g/ha: 15.625 g ai/ha, evaluated after 13 days (100=total damage to plant; 0=no damage to plant), read-out: Pigweed, Redroot damage rating; for pest or weed control at 62.5 g/ha: 62.5 g ai/ha, read-out: Pigweed, Redroot damage rating (100=total damage to plant; 0=no damage to plant); for pest or weed control at 62.5 g/ha / pest or weed control at 250 g/ha: evaluated after 13 days; for pest or weed control at 250 g/ha: 250 g ai/ha, read-out: damage to plant, Pigweed, Redroot (100=total damage to plant; 0=no damage to plant)
How it was run: as §1

[3] = system: corn (Zea mays); experiment: Test G Post-Emergence Protocol; details: Zea mays, post-emergence, 312 h; for plant injury at 15.625 g/ha: 15.625 g ai/ha, evaluated after 13 days (100=total damage to plant; 0=no damage to plant), read-out: Corn damage rating; for plant injury at 62.5 g/ha: 62.5 g ai/ha, read-out: Corn damage rating (100=total damage to plant; 0=no damage to plant); for plant injury at 62.5 g/ha / plant injury at 250 g/ha: evaluated after 13 days; for plant injury at 250 g/ha: 250 g ai/ha, read-out: damage to plant, Corn (100=total damage to plant; 0=no damage to plant)
How it was run: as §1

[4] = system: giant foxtail (Setaria faberi); experiment: Test G Post-Emergence Protocol; details: Setaria faberi, post-emergence, 312 h; for pest or weed control at 15.625 g/ha: 15.625 g ai/ha, evaluated after 13 days (100=total damage to plant; 0=no damage to plant), read-out: Foxtail, Giant damage rating; for pest or weed control at 62.5 g/ha: 62.5 g ai/ha, read-out: Foxtail, Giant damage rating (100=total damage to plant; 0=no damage to plant); for pest or weed control at 62.5 g/ha / pest or weed control at 250 g/ha: evaluated after 13 days; for pest or weed control at 250 g/ha: 250 g ai/ha, read-out: damage to plant, Foxtail, Giant (100=total damage to plant; 0=no damage to plant)
How it was run: as §1

[5] = system: ivy-leaved morning glory (Ipomoea hederacea); experiment: Test G Post-Emergence Protocol; details: Ipomoea, post-emergence, 312 h; for pest or weed control at 15.625 g/ha: 15.625 g ai/ha, evaluated after 13 days (100=total damage to plant; 0=no damage to plant), read-out: Morningglory, Ivy-leaved damage rating; for pest or weed control at 62.5 g/ha: 62.5 g ai/ha, read-out: Morningglory, Ivy-leaved damage rating (100=total damage to plant; 0=no damage to plant); for pest or weed control at 62.5 g/ha / pest or weed control at 250 g/ha: evaluated after 13 days; for pest or weed control at 250 g/ha: 250 g ai/ha, read-out: damage to plant, Morningglory, Ivy-leaved (100=total damage to plant; 0=no damage to plant)
How it was run: as §1

[6] = system: velvetleaf (Abutilon theophrasti); experiment: Test G Post-Emergence Protocol; details: Abutilon theophrasti, post-emergence, 312 h; for pest or weed control at 15.625 g/ha: 15.625 g ai/ha, evaluated after 13 days (100=total damage to plant; 0=no damage to plant), read-out: Velvetleaf damage rating; for pest or weed control at 62.5 g/ha: 62.5 g ai/ha, read-out: Velvetleaf damage rating (100=total damage to plant; 0=no damage to plant); for pest or weed control at 62.5 g/ha / pest or weed control at 250 g/ha: evaluated after 13 days; for pest or weed control at 250 g/ha: 250 g ai/ha, read-out: damage to plant, Velvetleaf (100=total damage to plant; 0=no damage to plant)
How it was run: as §1

[7] = system: barnyardgrass (Echinochloa crus-galli); experiment: Test G Pre-Emergence Protocol; details: Echinochloa crus-galli, pre-emergence, 312 h, evaluated after 13 days; for pest or weed control at 15.625 g/ha: 15.625 g ai/ha, read-out: Barnyard grass damage rating (100=total damage to plant; 0=no damage to plant); for pest or weed control at 62.5 g/ha: 62.5 g ai/ha, 100=total damage to plant, 0=no damage to plant, read-out: plant damage rating, Barnyardgrass; for pest or weed control at 250 g/ha: 250 g ai/ha, read-out: Barnyardgrass damage rating (100=total damage to plant; 0=no damage to plant)
How it was run: (§2)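 One day after sowing, pots are treated with a spray of test compound formulated in acetone/water 50:50 plus 0.5% Tween 20, giving 15.625, 62.5 or 250 g/ha. Evaluation on a 0–100 damage scale follows 13 days of glasshouse growth.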

[8] = system: redroot pigweed (Amaranthus retroflexus); experiment: Test G Pre-Emergence Protocol; details: Amaranthus retroflexus, pre-emergence, 312 h, evaluated after 13 days; for pest or weed control at 15.625 g/ha: 15.625 g ai/ha; for pest or weed control at 15.625 g/ha / pest or weed control at 250 g/ha: read-out: Pigweed, Redroot damage rating (100=total damage to plant; 0=no damage to plant); for pest or weed control at 62.5 g/ha: 62.5 g ai/ha, 100=total damage to plant, 0=no damage to plant, read-out: plant damage rating, Pigweed, Redroot; for pest or weed control at 250 g/ha: 250 g ai/ha
How it was run: as §2

[9] = system: corn (Zea mays); experiment: Test G Pre-Emergence Protocol; details: Zea mays, pre-emergence, 312 h, evaluated after 13 days; for plant injury at 15.625 g/ha: 15.625 g ai/ha; for plant injury at 15.625 g/ha / plant injury at 250 g/ha: read-out: Corn damage rating (100=total damage to plant; 0=no damage to plant); for plant injury at 62.5 g/ha: 62.5 g ai/ha, 100=total damage to plant, 0=no damage to plant, read-out: plant damage rating, Corn; for plant injury at 250 g/ha: 250 g ai/ha
How it was run: as §2

[10] = system: giant foxtail (Setaria faberi); experiment: Test G Pre-Emergence Protocol; details: Setaria faberi, pre-emergence, 312 h, evaluated after 13 days; for pest or weed control at 15.625 g/ha: 15.625 g ai/ha; for pest or weed control at 15.625 g/ha / pest or weed control at 250 g/ha: read-out: Foxtail, Giant damage rating (100=total damage to plant; 0=no damage to plant); for pest or weed control at 62.5 g/ha: 62.5 g ai/ha, 100=total damage to plant, 0=no damage to plant, read-out: plant damage rating, Foxtail, Giant; for pest or weed control at 250 g/ha: 250 g ai/ha
How it was run: as §2

[11] = system: ivy-leaved morning glory (Ipomoea hederacea); experiment: Test G Pre-Emergence Protocol; details: Ipomoea, pre-emergence, 312 h, evaluated after 13 days; for pest or weed control at 15.625 g/ha: 15.625 g ai/ha, read-out: Morning-glory, Ivy-leaved damage rating (100=total damage to plant; 0=no damage to plant); for pest or weed control at 62.5 g/ha: 62.5 g ai/ha, 100=total damage to plant, 0=no damage to plant, read-out: plant damage rating, Morningglory, Ivy-leaved; for pest or weed control at 250 g/ha: 250 g ai/ha, read-out: Morningglory, Ivy-leaved damage rating (100=total damage to plant; 0=no damage to plant)
How it was run: as §2

[12] = system: velvetleaf (Abutilon theophrasti); experiment: Test G Pre-Emergence Protocol; details: Abutilon theophrasti, pre-emergence, 312 h, evaluated after 13 days; for pest or weed control at 15.625 g/ha: 15.625 g ai/ha; for pest or weed control at 15.625 g/ha / pest or weed control at 250 g/ha: read-out: Velvetleaf damage rating (100=total damage to plant; 0=no damage to plant); for pest or weed control at 62.5 g/ha: 62.5 g ai/ha, 100=total damage to plant, 0=no damage to plant, read-out: plant damage rating, Velvetleaf; for pest or weed control at 250 g/ha: 250 g ai/ha
How it was run: as §2

CN1C[C@@H](c2ccc(C(F)(F)F)cc2)[C@H](C(=O)Nc2cnccn2)C1=O (racemic) [Compound 1572]
0%: pest or weed control at 15.625 g/ha [1] | pest or weed control at 62.5 g/ha [1] | pest or weed control at 250 g/ha [1] | pest or weed control at 15.625 g/ha [2] | pest or weed control at 62.5 g/ha [2] | plant injury at 15.625 g/ha [3] | plant injury at 62.5 g/ha [3] | plant injury at 250 g/ha [3] | pest or weed control at 15.625 g/ha [4] | pest or weed control at 62.5 g/ha [4] | pest or weed control at 15.625 g/ha [5] | pest or weed control at 15.625 g/ha [6] | pest or weed control at 62.5 g/ha [6] | pest or weed control at 250 g/ha [6] | pest or weed control at 15.625 g/ha [7] | pest or weed control at 62.5 g/ha [7] | pest or weed control at 250 g/ha [7] | pest or weed control at 15.625 g/ha [8] | pest or weed control at 62.5 g/ha [8] | pest or weed control at 250 g/ha [8] | plant injury at 15.625 g/ha [9] | plant injury at 62.5 g/ha [9] | plant injury at 250 g/ha [9] | pest or weed control at 15.625 g/ha [10] | pest or weed control at 62.5 g/ha [10] | pest or weed control at 250 g/ha [10] | pest or weed control at 15.625 g/ha [11] | pest or weed control at 62.5 g/ha [11] | pest or weed control at 250 g/ha [11] | pest or weed control at 15.625 g/ha [12] | pest or weed control at 62.5 g/ha [12] | pest or weed control at 250 g/ha [12]
10%: pest or weed control at 62.5 g/ha [5]
30%: pest or weed control at 250 g/ha [5]
40%: pest or weed control at 250 g/ha [4]
20%: pest or weed control at 250 g/ha [2]

Cc1cc(Cl)ncc1NC(=O)[C@@H]1C(=O)N(C)C[C@H]1c1ccc(C(F)(F)F)cc1 (racemic) [Compound 1578]
60%: pest or weed control at 250 g/ha [4] | pest or weed control at 250 g/ha [10]
30%: pest or weed control at 250 g/ha [2] | pest or weed control at 250 g/ha [5]
0%: pest or weed control at 15.625 g/ha [1] | pest or weed control at 15.625 g/ha [2] | plant injury at 15.625 g/ha [3] | plant injury at 62.5 g/ha [3] | pest or weed control at 15.625 g/ha [4] | pest or weed control at 15.625 g/ha [5] | pest or weed control at 15.625 g/ha [7] | pest or weed control at 62.5 g/ha [7] | pest or weed control at 250 g/ha [7] | pest or weed control at 15.625 g/ha [8] | pest or weed control at 62.5 g/ha [8] | plant injury at 15.625 g/ha [9] | plant injury at 62.5 g/ha [9] | pest or weed control at 15.625 g/ha [10] | pest or weed control at 62.5 g/ha [10] | pest or weed control at 15.625 g/ha [11] | pest or weed control at 62.5 g/ha [11] | pest or weed control at 250 g/ha [11] | pest or weed control at 15.625 g/ha [12] | pest or weed control at 62.5 g/ha [12]
10%: plant injury at 250 g/ha [3] | pest or weed control at 62.5 g/ha [4] | pest or weed control at 62.5 g/ha [5] | pest or weed control at 62.5 g/ha [6] | plant injury at 250 g/ha [9] | pest or weed control at 250 g/ha [12]
20%: pest or weed control at 62.5 g/ha [1] | pest or weed control at 250 g/ha [1] | pest or weed control at 62.5 g/ha [2] | pest or weed control at 15.625 g/ha [6] | pest or weed control at 250 g/ha [6] | pest or weed control at 250 g/ha [8]
